In ChEMBL document CHEMBL1177813, “Design and synthesis of trivalent ligands targeting opioid, cholecystokinin, and melanocortin receptors for the treatment of pain” (Bioorg Med Chem Lett, 2010):
pIC50, pKi: −log10 of the molar value. Calls of active or inactive are those of the source. No cut-off for these calls is given here. Where a SMILES comes first, the peptide text is derived from it. [ ]: non-standard residue; d: D form. Nle = CCCC[C@H](N)C(=O)O

Assays:
[1] = target: Delta-type opioid receptor (Mus musculus, UniProt P32300); test: Agonist activity at delta opioid receptor in mouse vas deferens assessed as inhibition of electrically-stimulated muscle contraction; format: functional, tissue-based
Delta-type opioid receptor (Mus musculus, UniProt P32300), sequence (P32300 whole entry): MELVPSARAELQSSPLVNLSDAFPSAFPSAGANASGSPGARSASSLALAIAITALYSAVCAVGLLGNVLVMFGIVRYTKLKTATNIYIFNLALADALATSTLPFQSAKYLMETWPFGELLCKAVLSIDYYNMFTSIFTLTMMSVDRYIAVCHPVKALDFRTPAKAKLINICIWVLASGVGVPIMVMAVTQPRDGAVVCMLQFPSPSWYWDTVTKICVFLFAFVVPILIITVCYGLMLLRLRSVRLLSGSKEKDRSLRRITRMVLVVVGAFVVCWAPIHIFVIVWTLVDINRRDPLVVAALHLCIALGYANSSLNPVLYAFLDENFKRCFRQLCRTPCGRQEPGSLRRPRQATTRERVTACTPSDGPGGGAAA

[2] = Agonist activity at CCK receptor in Hartley guinea pig ileum longitudinal muscle with myenteric plexus assessed as inhibition of electrically-stimulated muscle contraction at 1 uM relative to KCl; format: functional, Cavia porcellus; parameters: scale not given: the % may be the effect or the level left
[3] = target: Delta-type opioid receptor (Homo sapiens, UniProt P41143); test: Displacement of [3H]DPDPE from human delta opioid receptor expressed in mouse HN9.10 cells; format: cell-based
Delta-type opioid receptor (Homo sapiens, UniProt P41143), sequence (P41143 whole entry): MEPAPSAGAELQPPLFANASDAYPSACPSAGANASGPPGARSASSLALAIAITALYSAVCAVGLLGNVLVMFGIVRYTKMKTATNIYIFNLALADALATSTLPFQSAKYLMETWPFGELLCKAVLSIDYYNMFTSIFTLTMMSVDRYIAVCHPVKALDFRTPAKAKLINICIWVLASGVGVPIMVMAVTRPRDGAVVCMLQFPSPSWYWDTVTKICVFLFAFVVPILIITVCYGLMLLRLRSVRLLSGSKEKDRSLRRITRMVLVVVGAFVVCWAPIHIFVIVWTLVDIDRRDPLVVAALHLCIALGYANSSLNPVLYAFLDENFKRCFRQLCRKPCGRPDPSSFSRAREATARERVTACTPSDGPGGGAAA

[4] = target: Mu-type opioid receptor (Rattus norvegicus, UniProt P33535); test: Displacement of [3H]DAMGO from rat mu opioid receptor expressed in mouse HN9.10 cells; format: cell-based
Mu-type opioid receptor (Rattus norvegicus, UniProt P33535), sequence (P33535 whole entry): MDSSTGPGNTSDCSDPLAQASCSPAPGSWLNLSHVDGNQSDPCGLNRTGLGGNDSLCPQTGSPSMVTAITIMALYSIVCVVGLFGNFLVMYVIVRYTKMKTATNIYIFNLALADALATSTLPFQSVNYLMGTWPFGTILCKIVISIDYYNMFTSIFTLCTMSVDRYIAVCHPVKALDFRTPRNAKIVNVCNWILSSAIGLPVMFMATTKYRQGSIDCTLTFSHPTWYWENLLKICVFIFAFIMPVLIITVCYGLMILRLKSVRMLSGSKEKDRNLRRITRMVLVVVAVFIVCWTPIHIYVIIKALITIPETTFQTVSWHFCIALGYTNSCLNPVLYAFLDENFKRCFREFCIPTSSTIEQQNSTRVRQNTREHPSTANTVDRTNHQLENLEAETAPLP

[5] = target: T1, Cholecystokinin receptor type A (Homo sapiens, UniProt P32238); test: Displacement of [125I]CCK-8(SO3) from human CCK1 receptor expressed in human HEK293 cells; format: cell-based; settings: for pKi: read-out: Ki; for Ki: hek293
T1 sequence (P32238 whole entry): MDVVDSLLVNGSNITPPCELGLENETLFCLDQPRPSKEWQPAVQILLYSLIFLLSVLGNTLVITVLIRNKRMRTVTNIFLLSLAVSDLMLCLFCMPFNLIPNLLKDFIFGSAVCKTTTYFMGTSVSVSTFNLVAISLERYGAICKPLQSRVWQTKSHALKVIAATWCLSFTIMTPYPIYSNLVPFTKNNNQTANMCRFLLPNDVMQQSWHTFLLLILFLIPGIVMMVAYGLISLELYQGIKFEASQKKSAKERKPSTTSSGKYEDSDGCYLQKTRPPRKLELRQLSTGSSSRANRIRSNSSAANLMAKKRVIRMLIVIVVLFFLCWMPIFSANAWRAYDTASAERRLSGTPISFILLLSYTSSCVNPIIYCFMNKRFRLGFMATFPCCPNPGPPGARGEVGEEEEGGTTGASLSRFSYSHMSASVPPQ

[6] = target: T2, Gastrin/cholecystokinin type B receptor (Homo sapiens, UniProt P32239); test: Displacement of [125I]CCK-8(SO3) from human CCK2 receptor expressed in human HEK293 cells; format: cell-based; settings: for pKi: read-out: Ki; for Ki: hek293
T2 sequence (P32239 whole entry): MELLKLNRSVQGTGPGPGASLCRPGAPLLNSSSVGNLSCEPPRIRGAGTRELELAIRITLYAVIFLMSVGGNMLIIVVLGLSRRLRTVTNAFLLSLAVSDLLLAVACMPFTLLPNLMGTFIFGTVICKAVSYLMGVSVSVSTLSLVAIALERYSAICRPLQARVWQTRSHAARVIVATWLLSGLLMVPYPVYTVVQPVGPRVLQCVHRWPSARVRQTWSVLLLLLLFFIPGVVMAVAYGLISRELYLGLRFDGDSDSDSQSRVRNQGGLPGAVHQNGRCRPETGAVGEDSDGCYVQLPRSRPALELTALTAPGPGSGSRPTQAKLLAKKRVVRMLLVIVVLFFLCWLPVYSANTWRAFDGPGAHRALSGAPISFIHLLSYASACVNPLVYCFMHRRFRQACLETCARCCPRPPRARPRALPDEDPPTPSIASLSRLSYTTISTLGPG

[7] = target: Melanocortin receptor 4 (Homo sapiens, UniProt P32245); test: Displacement of Eu-NDP-alphaMSH from human MC4 receptor expressed in human HEK293 cells; format: cell-based
Melanocortin receptor 4, sequence (P32245 whole entry): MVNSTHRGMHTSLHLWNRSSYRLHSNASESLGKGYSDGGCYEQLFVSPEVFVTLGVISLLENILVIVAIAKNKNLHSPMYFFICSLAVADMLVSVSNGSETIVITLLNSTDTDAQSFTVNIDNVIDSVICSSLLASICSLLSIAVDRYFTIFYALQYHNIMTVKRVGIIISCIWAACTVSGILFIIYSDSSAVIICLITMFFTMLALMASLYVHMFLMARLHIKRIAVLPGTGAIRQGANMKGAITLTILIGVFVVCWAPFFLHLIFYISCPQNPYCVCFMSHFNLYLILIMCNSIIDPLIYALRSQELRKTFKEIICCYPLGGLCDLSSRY

[8] = target: Mu-type opioid receptor (Cavia porcellus, UniProt P97266); test: Agonist activity at mu opioid receptor in guinea pig ileum assessed as inhibition of electrically-stimulated muscle contraction; format: functional, tissue-based
Mu-type opioid receptor (Cavia porcellus, UniProt P97266), sequence (P97266 whole entry): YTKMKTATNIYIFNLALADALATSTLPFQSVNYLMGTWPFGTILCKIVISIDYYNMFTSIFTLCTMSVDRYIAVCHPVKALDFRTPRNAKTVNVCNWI

[9] = species: Cavia porcellus; test: […] activity at CCK receptor in Hartley guinea pig ileum longitudinal muscle with myenteric plexus assessed as inhibition of CCK8-stimulated muscle contraction at 1 uM; format: functional, tissue-based
[10] = species: Homo sapiens; test: Selectivity ratio of Ki for human CCK1 receptor to Ki for human CCk2 receptor
[11] = target: Delta-type opioid receptor (Mus musculus) (UniProt P32300); test: Agonist activity at delta opioid receptor in mouse vas deferens assessed as inhibition of electrically-stimulated muscle contraction at 1 uM; format: functional, tissue-based; parameters: scale not given: the % may be the effect or the level left
Delta-type opioid receptor (Mus musculus), sequence (P32300 whole entry): as the sequence (P32300 whole entry) above

[12] = target: Mu-type opioid receptor (Cavia porcellus) (UniProt P97266); test: Agonist activity at mu opioid receptor in guinea pig ileum assessed as inhibition of electrically-stimulated muscle contraction at 1 uM; format: functional, tissue-based; parameters: scale not given: the % may be the effect or the level left
Mu-type opioid receptor (Cavia porcellus), sequence (P97266 whole entry): as the sequence (P97266 whole entry) above

[13] = […] activity at CCK receptor in Hartley guinea pig ileum longitudinal muscle with myenteric plexus assessed as inhibition of CCK8-stimulated muscle contraction; format: functional, Cavia porcellus

Row | Compound | pIC50 [1] | Activity [2] [%] | pIC50 [3] | pKi [3] | pIC50 [4] | pKi [4] | pIC50 [5] | pKi [5] | pIC50 [6] | pKi [6] | pIC50 [7] | pIC50 [8] | Ke [9] | Ratio Ki [10] | Activity [11] [%] | Activity [12] [%] | Ki [5] | Ki [6] | Ke [13] [nM]
1 | CCCC[C@H](NC(=O)[C@H](Cc1c[nH]c2ccccc12)NC(=O)[C@H](CCCNC(=N)N)NC(=O)[C@@H](Cc1ccc2ccccc2c1)NC(=O)[C@H](Cc1cnc[nH]1)NC(=O)[C@H](Cc1ccccc1)NC(=O)CNC(=O)[C@@H](C)NC(=O)[C@@H](N)Cc1ccc(O)cc1)C(=O)N[C@@H](CC(=O)O)C(=O)N[C@@H](Cc1ccccc1)C(N)=O | 7.22 | 0 | 8.20 | 8.54 | 8.90 | 9.16 | 8.00 | 8.05 | 6.90 | 6.92 | 6.59 | 6.70 | inactive | 0.075 | – | – | – | – | –
2 | CCCC[C@H](NC(=O)[C@H](Cc1c[nH]c2ccccc12)NC(=O)[C@H](CCCN=C(N)N)NC(=O)[C@@H](Cc1ccc2ccccc2c1)NC(=O)[C@H](Cc1cnc[nH]1)NC(=O)[C@@H](N)Cc1ccccc1)C(N)=O | – | – | – | – | – | – | – | – | – | – | 6.70 | – | – | – | – | – | – | – | –
3 | C[C@@H](NC(=O)[C@@H](N)Cc1ccc(O)cc1)C(=O)NCC(=O)N[C@@H](Cc1ccccc1)C(=O)NCCCC[C@H](NC(=O)[C@H](Cc1c[nH]c2ccccc12)NC(=O)[C@H](CCCN=C(N)N)NC(=O)[C@@H](Cc1ccc(Cl)cc1)NC(=O)[C@@H](N)Cc1cnc[nH]1)C(=O)N[C@@H](CC(=O)O)C(=O)N[C@@H](Cc1ccccc1)C(N)=O | – | – | – | – | – | – | – | – | – | – | – | 6.48 | – | – | – | – | – | – | –
4 | N=C(N)NCCC[C@@H]1NC(=O)[C@H](Cc2ccc(Cl)cc2)NC(=O)[C@H](Cc2cnc[nH]2)NC(=O)CNC(=O)[C@H](NC(=O)[C@@H](N)Cc2ccc(O)cc2)CC(=O)NCCCC[C@@H](C(=O)N[C@@H](CC(=O)O)C(=O)N[C@H](Cc2ccccc2)C(N)=O)NC(=O)[C@H](Cc2cc3ccccc3[nH]2)NC1=O | – | 0 | 5.60 | 5.89 | 5.40 | 5.68 | 6.90 | 6.25 | 6.00 | 6.03 | 7.49 | – | inactive | – | 16 | 0 | – | – | –
5 | CCCC[C@H](NC(=O)[C@H](Cc1c[nH]c2ccccc12)NC(=O)[C@H](CCCNC(=N)N)NC(=O)[C@@H](Cc1ccccc1)NC(=O)[C@H](Cc1cnc[nH]1)NC(=O)[C@H](Cc1ccccc1)NC(=O)CNC(=O)[C@@H](C)NC(=O)[C@@H](N)Cc1ccc(O)cc1)C(=O)N[C@@H](CC(=O)O)C(=O)N[C@@H](Cc1ccccc1)C(N)=O | 7.40 | 0 | 7.90 | 8.21 | 7.50 | 7.85 | 5.60 | 5.85 | 7.50 | 7.74 | 5.89 | 6.89 | inactive | – | – | – | – | – | –
6 | C[C@@H](NC(=O)[C@@H](N)Cc1ccc(O)cc1)C(=O)NCC(=O)N[C@@H](Cc1ccccc1)C(=O)NCCCC[C@H](NC(=O)[C@H](Cc1c[nH]c2ccccc12)NC(=O)[C@H](CCCNC(=N)N)NC(=O)[C@@H](Cc1ccc(Cl)cc1)NC(=O)[C@@H](N)Cc1cnc[nH]1)C(=O)N[C@@H](CC(=O)O)C(=O)N[C@@H](Cc1ccccc1)C(N)=O | – | 0 | – | – | – | – | – | – | – | – | – | – | inactive | – | – | – | Not Active | Not Active | –
7 | CCCC[C@H](NC(=O)[C@H](Cc1c[nH]c2ccccc12)NC(=O)[C@H](CCCNC(=N)N)NC(=O)[C@@H](Cc1ccc2ccccc2c1)NC(=O)[C@H](Cc1cnc[nH]1)NC(=O)[C@H]1Cc2ccccc2CN1C(=O)[C@@H](N)Cc1c(C)cc(O)cc1C)C(=O)N[C@@H](CC(=O)O)C(=O)N[C@@H](Cc1ccccc1)C(N)=O | – | 0 | – | – | – | – | – | – | – | – | – | – | inactive | – | – | – | – | – | –
8 | CCCC[C@H](NC(=O)[C@H](Cc1c[nH]c2ccccc12)NC(=O)[C@H](CCCN=C(N)N)NC(=O)[C@@H](Cc1ccc2ccccc2c1)NC(=O)[C@H](Cc1cnc[nH]1)NC(=O)[C@H](Cc1ccccc1)NC(=O)[C@@H](C)NC(=O)[C@@H](N)Cc1c(C)cc(O)cc1C)C(=O)N[C@@H](CC(=O)O)C(=O)N[C@@H](Cc1ccccc1)C(N)=O | 6.96 | – | 8.10 | 8.43 | 8.00 | 8.31 | 9.10 | – | 6.70 | 6.74 | 6.30 | 7.18 | – | – | – | – | – | – | –
9 | CCCC[C@H](NC(=O)[C@H](Cc1c[nH]c2ccccc12)NC(=O)[C@H](CCCNC(=N)N)NC(=O)[C@@H](Cc1ccc2ccccc2c1)NC(=O)[C@H](Cc1cnc[nH]1)NC(=O)[C@H](Cc1ccccc1)NC(=O)[C@@H](C)NC(=O)[C@@H](N)Cc1ccc(O)cc1)C(=O)N[C@@H](CC(=O)O)C(=O)N[C@@H](Cc1ccccc1)C(N)=O | 6.43 | 0 | 7.10 | 7.38 | 6.30 | 6.60 | 8.80 | 8.80 | 6.70 | 6.72 | 6.15 | 5.64 | inactive | 119 | – | – | – | – | –
10 | Cc1cc(O)cc(C)c1C[C@H](N)C(=O)N1CC(=O)N[C@@H](Cc2cnc[nH]2)C(=O)N[C@H](Cc2ccc3ccccc3c2)C(=O)N[C@@H](CCCNC(=N)N)C(=O)N[C@@H](Cc2c[nH]c3ccccc23)C(=O)N[C@H](C(=O)N[C@@H](CC(=O)O)C(=O)N[C@@H](Cc2ccccc2)C(N)=O)CSSC[C@@H](N)C1=O | 6.21 | 0 | 7.90 | 8.25 | 7.90 | 8.23 | – | – | – | – | 6.36 | 6.55 | inactive | – | – | – | Not Active | Not Active | –
11 | CCCC[C@H](NC(=O)[C@@H](N)Cc1ccc(O)cc1)C(=O)N[C@@H](CC(=O)O)C(=O)N[C@@H](Cc1ccccc1)C(N)=O (H-Y[Nle]DF-NH2) | – | – | – | – | – | – | – | – | – | – | – | – | – | – | – | – | Not Active | – | –
12 | CCCC[C@H](NC(=O)[C@H](Cc1c[nH]c2ccccc12)NC(=O)[C@H](CCCNC(=N)N)NC(=O)[C@@H](Cc1ccc2ccccc2c1)NC(=O)[C@H](Cc1cnc[nH]1)NC(=O)[C@H](Cc1ccccc1)NC(=O)[C@@H](C)NC(=O)[C@@H](N)Cc1c(C)cc(O)cc1C)C(=O)N[C@@H](CC(=O)O)C(=O)N[C@@H](Cc1ccccc1)C(N)=O | – | 0 | – | – | – | – | – | – | – | – | – | – | inactive | – | – | – | – | – | –
13 | CCCC[C@H](NC(=O)[C@H](Cc1c[nH]c2ccccc12)NC(=O)[C@H](CCCN=C(N)N)NC(=O)[C@@H](Cc1ccc2ccccc2c1)NC(=O)[C@H](Cc1cnc[nH]1)NC(=O)[C@H]1Cc2ccccc2CN1C(=O)[C@@H](N)Cc1c(C)cc(O)cc1C)C(=O)N[C@@H](CC(=O)O)C(=O)N[C@@H](Cc1ccccc1)C(N)=O | 6.89 | – | 7.90 | 8.21 | 7.40 | 7.74 | 7.50 | 7.49 | 6.90 | 7.00 | 6.80 | 6.24 | – | – | – | – | – | – | –
14 | Cc1cc(O)cc(C)c1C[C@H](N)C(=O)N1CC(=O)N[C@@H](Cc2cnc[nH]2)C(=O)N[C@H](Cc2ccccc2)C(=O)N[C@@H](CCCNC(=N)N)C(=O)N[C@@H](Cc2c[nH]c3ccccc23)C(=O)N[C@H](C(=O)N[C@@H](CC(=O)O)C(=O)N[C@@H](Cc2ccccc2)C(N)=O)CSSC[C@@H](N)C1=O | – | 0 | – | – | – | – | – | – | – | – | – | – | inactive | – | – | – | – | Not Active | –
15 | CCCC[C@H](NC(=O)[C@H](Cc1c[nH]c2ccccc12)NC(=O)[C@H](CCCNC(=N)N)NC(=O)[C@@H](Cc1ccc2ccccc2c1)NC(=O)[C@H](Cc1cnc[nH]1)NC(=O)[C@H](Cc1ccccc1)NC(=O)CNC(=O)[C@@H](C)NC(=O)[C@@H](N)Cc1c(C)cc(O)cc1C)C(=O)N[C@@H](CC(=O)O)C(=O)N[C@@H](Cc1ccccc1)C(N)=O | 7.96 | 0 | – | – | 9.60 | 9.89 | 7.70 | 7.74 | 6.90 | 6.96 | 6.80 | 8.08 | – | – | – | – | – | – | 940
